Read-outs that look alike come from different tables or passages of the source.

The target of assay [1] is T1, IFITM3 (Homo sapiens, UniProt Q01628). The assay is described as follows: cell-based or functional assay.
The next assay has as its target CypA (Homo sapiens, UniProt P62937). The assay is described as follows: biochemical. It counts as binding. As to conditions: for Kd / Max Response: SPR, Biacore, 25° C. The procedure: CypA binding was carried out using surface plasmon resonance as described (Warne J Biol Chem. 2016 Feb. 26; 291 (9): 4356-73).
Surface Plasmon Resonance (SPR) using Biacore at 25° C. was used to study the binding interactions between CypA and various inhibitors. The SPR binding experiments used a duel flow cell with a blank reference. The sensor chip surface was initially activated with a mixture of N-hydroxysuccinimide (NHS,) and N-(3-dimethyl-aminopropyl)-N′-ethyl-carbodiimide hydrochloride (EDC) for 420 s with a flow rate of 10 μl/min on blank flow cell 1 in addition to flow cell 2.
CypA protein was diluted to a concentration of 50 μg/mL by the addition of 10 mM sodium acetate pH 5 solution before immobilisation and covalent attachment to the carboxy-methylated dextran matrix of the Biacore CM5 sensor chip. CypA was run against the surface for 420 s and then any unreacted surface was quenched by 420 s of ethanolamine.
Immobilisations were carried out in the presence of JW47 (Warne J Biol Chem. 2016 Feb. 26; 291 (9): 4356-73).
No regeneration stage was required if the dissociation time was sufficient.
Solvent correction was carried out in each experiment using 8 different DMSO dilutions as reference: 2.8%, 2.6%, 2.4%, 2.2%, 2%, 1.8%, 1.6% & 1.5%.
A 50/50 mixture of buffer and DMSO is required to include a wash cycle in the experiment.
50 μl of CypA (0.1 mg/ml)+40 μL of 10 mM sodium acetate pH5+10 μl of 600 μM of JW47 DMSO solution. This mixture was allowed to stand at room temperature for 10 mins prior to set-up in the injection rack.

A further assay concerns Human stem cells (HSC). The class given is cell-based.
Assay [2] deals with T1, IFITM3. It counts as cell-based. On the set-up: treated with 10 ng/ml type 1 interferon (IFNβ) overnight to induce IFITM3 expression; endogenous in cells; host or cells: THP-1 (human monocytic cell line), IFNβ-treated.
A further assay addresses cyclophilin A (CypA) (UniProt P62937). The assay is described as follows: SPR (Biacore, 25 C), CypA amine-coupled to CM5 chip, compound as analyte.
Assay [3] concerns the target T1, IFITM3. It counts as cell-based. On the set-up: treated with 10 ng/ml type 1 interferon (IFNβ) overnight to induce IFITM3 expression; endogenous in cells; host or cells: THP-1 (human monocytic cell line), IFNβ-treated. This is another data set of the same source.

Sequence of CypA (P62937 whole entry): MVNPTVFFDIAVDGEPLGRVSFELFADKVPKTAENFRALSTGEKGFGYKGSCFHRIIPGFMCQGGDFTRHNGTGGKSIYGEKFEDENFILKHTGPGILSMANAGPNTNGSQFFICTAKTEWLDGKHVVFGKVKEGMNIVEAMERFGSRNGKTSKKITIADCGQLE
T1 sequence (Q01628 whole entry): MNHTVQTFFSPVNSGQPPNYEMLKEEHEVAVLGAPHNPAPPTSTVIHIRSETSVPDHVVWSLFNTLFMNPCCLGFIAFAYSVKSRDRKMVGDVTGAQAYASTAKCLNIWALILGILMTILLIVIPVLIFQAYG
Sequence of cyclophilin A (CypA) (P62937 whole entry): as the sequence (P62937 whole entry) above

Molecule Cyclosporine H (CsH) (peptide) came in with a fold rescue of HIV-GFP infection compared to IFN-inhibited baseline, THP-1 cells, compound at 5 µM with IFITM3 [1] of 24.6 fold.
Take `CC[C@@H]1NC(=O)[C@H]([C@H](O)[C@H](C)CC=Cc2c(OC)cc(C(=O)OCCn3ccnc3)cc2OC)N(C)C(=O)[C@H](C(C)C)N(C)C(=O)[C@H](CC(C)C)N(C)C(=O)[C@H](CC(C)C)N(C)C(=O)[C@@H](C)NC(=O)[C@H](C)NC(=O)[C@H](CC(C)C)N(C)C(=O)[C@H](C(C)C)NC(=O)[C@H](CC(C)C)N(C)C(=O)CN(C)C1=O` [BG186, 2-(1H-imidazol-1-yl)ethyl 4-((4R,5R)-5-((2S,5S,11S,14S,17S,20S,23R,26S,29S,32S)-5-ethyl-11,17,26,29-tetraisobutyl-14,32-diisopropyl-1,7,10,16,20,23,25,28,31-nonamethyl-3,6,9,12,15,18,21,24,27,30,33-undecaoxo-1,4,7,10,13,16,19,22,25,28,31-undecaazacyclotritriacontan-2-yl)-5-hydroxy-4-methylpent-1-en-1-yl)-3,5-dimethoxybenzoate]: on CypA, the koff came out at 0.422 s⁻¹, the kon came to 14600 M⁻¹ s⁻¹ and the “Max Response” value was 7.6 RU. This molecule gave a Kd at CypA (Kd (Affinity)) of 4.76 µM. Also, the Kd at CypA (Kd (Kinetics)) was found to be 28.9 µM.
As to `CC[C@@H]1NC(=O)[C@H]([C@H](O)[C@H](C)CC=Cc2ccc(C(=O)OCCn3ccnc3)cc2C)N(C)C(=O)[C@H](C(C)C)N(C)C(=O)[C@H](CC(C)C)N(C)C(=O)[C@H](CC(C)C)N(C)C(=O)[C@@H](C)NC(=O)[C@H](C)NC(=O)[C@H](CC(C)C)N(C)C(=O)[C@H](C(C)C)NC(=O)[C@H](CC(C)C)N(C)C(=O)CN(C)C1=O` [BG150], on CypA, the koff was 0.0425 s⁻¹, the kon amounted to 11100 M⁻¹ s⁻¹ and the “Max Response” value is on record as 18.7 RU. Further, the dissociation constant (Kd) at CypA (read-out: Kd (Affinity)) is 1.31 µM. For the same molecule, the Kd on CypA (read-out: Kd (Kinetics)) turned out to be 3.84 µM.
As for `C/C=C/C[C@@H](C)[C@@H](O)[C@H]1C(=O)N[C@@H](CC)C(=O)N(C)CC(=O)N(C)[C@@H](CC(C)C)C(=O)N[C@@H](C(C)C)C(=O)N(C)[C@@H](CC(C)C)C(=O)N[C@@H](C)C(=O)N[C@H](C)C(=O)N(C)[C@@H](CC(C)C)C(=O)N(C)[C@@H](CC(C)C)C(=O)N(C)[C@H](C(C)C)C(=O)N1C` [CsH, Cyclosporine H, reference compound], the “transduction enhancement (% infected human stem cells), first donor” value in the assay on Human stem cells (HSC) is listed as “achieves good enhancement but at higher concentrations”. Also, the “rescue of infection from the antiviral effect of IFN” value at IFITM3 [2] is “rescue infection from the antiviral effect of IFN”.
In the assay with cyclophilin A (CypA), Cyclosporine A (CsA) (peptide) returned a Max Response of 40 RU. Besides, the fold rescue of HIV-GFP infection compared to IFN-inhibited baseline, THP-1 cells, compound at 5 µM in the assay with IFITM3 [1] was found to be 9.9 fold.
With `CCc1cc(C(=O)OCCn2ccnc2)ccc1C=CC[C@@H](C)[C@@H](O)[C@H]1C(=O)N[C@@H](CC)C(=O)N(C)CC(=O)N(C)[C@@H](CC(C)C)C(=O)N[C@@H](C(C)C)C(=O)N(C)[C@@H](CC(C)C)C(=O)N[C@@H](C)C(=O)N[C@H](C)C(=O)N(C)[C@@H](CC(C)C)C(=O)N(C)[C@@H](CC(C)C)C(=O)N(C)[C@@H](C(C)C)C(=O)N1C` [BG149], the “Max Response” value on CypA is given as 4.8 RU.
Take `CC[C@@H]1NC(=O)[C@H]([C@H](O)[C@H](C)CC=Cc2ccc(C(=O)OCCn3ccnc3)cc2OC(C)C)N(C)C(=O)[C@H](C(C)C)N(C)C(=O)[C@H](CC(C)C)N(C)C(=O)[C@H](CC(C)C)N(C)C(=O)[C@@H](C)NC(=O)[C@H](C)NC(=O)[C@H](CC(C)C)N(C)C(=O)[C@H](C(C)C)NC(=O)[C@H](CC(C)C)N(C)C(=O)CN(C)C1=O` [BG185]: on CypA, the koff was 0.584 s⁻¹, the kon came to 2250 M⁻¹ s⁻¹ and the “Max Response” value is on record as 14.5 RU. For the same molecule, the Kd at CypA (read-out: Kd (Affinity)) is 2.92 µM. In addition, the equilibrium dissociation constant (Kd) at CypA (read-out: Kd (Kinetics)) amounted to 259 µM.
In the case of `CC[C@@H]1NC(=O)[C@H]([C@H](O)[C@H](C)CC=Cc2ccc(C(=O)OCCn3ccnc3)cc2C(F)(F)F)N(C)C(=O)[C@H](C(C)C)N(C)C(=O)[C@H](CC(C)C)N(C)C(=O)[C@H](CC(C)C)N(C)C(=O)[C@@H](C)NC(=O)[C@H](C)NC(=O)[C@H](CC(C)C)N(C)C(=O)[C@H](C(C)C)NC(=O)[C@H](CC(C)C)N(C)C(=O)CN(C)C1=O` [BG190], on CypA, the koff turned out to be 0.0138 s⁻¹, the kon is 4800 M⁻¹ s⁻¹ and the “Max Response” value is 13.2 RU. For the same molecule, the equilibrium dissociation constant (Kd) on CypA (read-out: Kd (Affinity)) came out at 6.07 µM.
As for `CC[C@@H]1NC(=O)[C@H]([C@H](O)[C@H](C)CC=Cc2ccc(C(=O)OCCn3ccnc3)cc2OC)N(C)C(=O)[C@H](C(C)C)N(C)C(=O)[C@H](CC(C)C)N(C)C(=O)[C@H](CC(C)C)N(C)C(=O)[C@@H](C)NC(=O)[C@H](C)NC(=O)[C@H](CC(C)C)N(C)C(=O)[C@H](C(C)C)NC(=O)[C@H](CC(C)C)N(C)C(=O)CN(C)C1=O` [BG181], on CypA, the off-rate (koff) was found to be 0.228 s⁻¹, the kon amounted to 6360 M⁻¹ s⁻¹ and the “Max Response” value is on record as 9.8 RU. The Kd on CypA (read-out: Kd (Affinity)) was 2.66 µM. In addition, at CypA (read-out: Kd (Kinetics)), the Kd was found to be 35.9 µM.
Take `CC[C@@H]1NC(=O)[C@H]([C@H](O)[C@H](C)C/C=C/CCCn2ccnc2)N(C)C(=O)C(C(C)C)N(C)C(=O)[C@H](CC(C)C)N(C)C(=O)[C@H](CC(C)C)N(C)C(=O)[C@@H](C)NC(=O)[C@H](C)NC(=O)[C@H](CC(C)C)N(C)C(=O)[C@H](C(C)C)NC(=O)[C@H](CC(C)C)N(C)C(=O)CN(C)C1=O` (stereo partly shown) [JW-115, reference compound]: on IFITM3 [3], the “fold rescue compared to inhibited baseline” value was 14.2 fold.

Source of the values: patent publication US20250388625A1, “CYCLOSPORINE ANALOGUES” (priority 2022, published 2025).
